From patent US10487092B2, “Pyrazolopyridinamines as MKNK1 and MKNK2 inhibitors” (BAYER PHARMA AKTIENGESELLSCHAFT, priority 2014, dated 2019) come the findings set out here.

The structures appear in SMILES notation. pIC50: −log10 of the molar value. “Also recorded” adds a separate entry of the source.

In general, pIC50 refers to the IC50 on a negative log10 scale, so that one unit is a factor of ten.

One data set has as its target human full-length MKNK1 (Homo sapiens (Human), UniProt Q9BUB5, T344D). The data set is described as follows: MKNK1 kinase high ATP assay (TR-FRET). The format is biochemical. The following applies: high ATP (2 mM), 15 min preincubation with enzyme; read-out: MKNK1 IC50. The method, boiled down:
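GST-tagged full-length MKNK1 (aa 1–424, T344D; insect-cell expressed) preincubated 15 min with compound, then reacted 30 min at 22 °C with 2 mM ATP and 0.06 μM biotinylated peptide (final) in HEPES pH 7.5 buffer. Phosphopeptide detected by TR-FRET 665/620 ratio, normalized to no-inhibitor and no-enzyme controls.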
On the technique in general: Time-resolved FRET reads energy transfer from a long-lived donor to a nearby acceptor.

The subject of data set [1] is human peripheral blood mononuclear cells. Briefly: Cell viability of human PBMCs (CellTiter-Glo Luminescent Assay). The format is cell-based. The conditions noted are these: IL-1β stimulated, 24 hours. Here is the method:
Human PBMCs have been isolated from anti-coagulated human whole blood donated from healthy volunteers by pre-filling Leucosep tubes with ficoll-paque (15 ml, Biochrom, order ID: L6115) and adding 20 ml whole blood. After centrifugation of the blood at 800 g for 15 min at room temperature (RT) plasma including thrombocytes has been discarded. PBMCs were transferred to a new falcon tube, washed with PBS (phosphate-buffered saline) at 250 g for 10 min at RT and resuspended in complete medium [RPMI 1640, without L-glutamine (PAA, order ID: E15-039), 10% FCS; 50 U/ml Penicillin, 50 μg/ml Streptomycin (PAA, order ID: P11-010) and 1% L-glutamine (Sigma, order ID. G7513)]. The assay was performed in a 96-well plate at a cell density of 2.5×10^5 cells/well as triplicates. […] Cell viability was measured using the CellTiter-Glo Luminescent Assay (Promega, order ID: G7571) following the manufacturers protocol. The amount of secreted TNF-α (tumor necrosis factor-alpha) in the supernatant was determined using the Human Prolnflammatory 9-Plex (MSD, order ID: K15007B) according to manufacturer's instruction. The inhibitory activity was determined as the relation to the control in percent. IC50 values were calculated using the 4-parameter logistic model.

Data set [2] deals with secretion of TNF-α in human PBMCs. The data set is described as follows: In vitro IL-1β-induced cytokine (TNF-α) secretion of human PBMCs. The format is cell-based. The following applies: for pIC50: PBMC, human PBMCs stimulated with 20 ng/ml IL-1β for 24 hours. The text has this: In Vitro IL-1β (Interleukin-1 beta, IL-1b)-Induced Cytokine Secretion of Human PBMCs (Peripheral Blood Mononuclear Cells)
The effect of the chemical compounds on the induced cytokine secretion of human PBMCs has been investigated. Here, the cytokine secretion has been induced by IL-1β which binding to its receptors leads to the activation of the MKNK signaling pathway.
Human PBMCs have been isolated from anti-coagulated human whole blood donated from healthy volunteers by pre-filling Leucosep tubes with ficoll-paque (15 ml, Biochrom, order ID: L6115) and adding 20 ml whole blood. After centrifugation of the blood at 800 g for 15 min at room temperature (RT) plasma including thrombocytes has been discarded. PBMCs were transferred to a new falcon tube, washed with PBS (phosphate-buffered saline) at 250 g for 10 min at RT and resuspended in complete medium [RPMI 1640, without L-glutamine (PAA, order ID: E15-039), 10% FCS; 50 U/ml Penicillin, 50 μg/ml Streptomycin (PAA, order ID: P11-010) and 1% L-glutamine (Sigma, order ID. G7513)]. The assay was performed in a 96-well plate at a cell density of 2.5×10^5 cells/well as triplicates. The compounds were serially diluted in DMSO and added to the PBMCs at a range of 3×10^−9 M to 1×10^−5M with a final concentration of 0.4% DMSO, respectively. Treatment of PBMCs with 0.4% DMSO was used as control. After 30 min of incubation, PBMCs were stimulated with 20 ng/ml IL-1β (R&D, order ID: 201-LB CF) for 24 hours. Cell viability was measured using the CellTiter-Glo Luminescent Assay (Promega, order ID: G7571) following the manufacturers protocol. The amount of secreted TNF-α (tumor necrosis factor-alpha) in the supernatant was determined using the Human Prolnflammatory 9-Plex (MSD, order ID: K15007B) according to manufacturer's instruction. The inhibitory activity was determined as the relation to the control in percent. IC50 values were calculated using the 4-parameter logistic model.

human full-length MKNK1, sequence (Q9BUB5 other isoform, or with tags, fused parts or gaps T344D): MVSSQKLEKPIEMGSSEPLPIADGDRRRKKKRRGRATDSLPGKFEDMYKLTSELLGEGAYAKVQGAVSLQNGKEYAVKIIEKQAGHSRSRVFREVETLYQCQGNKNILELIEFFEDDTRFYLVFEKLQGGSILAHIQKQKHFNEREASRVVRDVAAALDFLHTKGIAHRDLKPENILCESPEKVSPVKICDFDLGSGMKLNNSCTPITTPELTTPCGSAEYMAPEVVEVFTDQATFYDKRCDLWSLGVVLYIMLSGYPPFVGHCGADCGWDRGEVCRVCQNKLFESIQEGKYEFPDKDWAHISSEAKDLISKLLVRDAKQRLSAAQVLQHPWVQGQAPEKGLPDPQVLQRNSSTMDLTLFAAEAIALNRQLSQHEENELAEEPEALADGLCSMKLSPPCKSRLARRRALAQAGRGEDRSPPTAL

For the compound `CN(C)[C@H]1CCN(C(=O)[C@H]2CCc3c(sc4ncnc(Nc5ccn6nccc6c5)c34)C2)C1` [Example 41, [(3S)-3-(Dimethylamino)pyrrolidin-1-yl][(7S)-4-(pyrazolo[1,5-a]pyridin-5-ylamino)-5,6,7,8-tetrahydro[1]benzothieno[2,3-d]pyrimidin-7-yl]methanone], the pIC50 was 7.96 on human full-length MKNK1 and 7.00 to 8.00 in data set [2]. Moreover, the “effect on cell viability” value in data set [1] is on record as “no effect”. Also, in data set [2] (human PBMCs stimulated with IL-1β), the “inhibition of the secretion of TNF-α” value is given as “inhibition of the secretion of TNF-α; also recorded: inhibits the secretion of TNF-α in a dose dependent manner”.

`CN(C)C1CCN(C(=O)[C@H]2CCc3c(sc4ncnc(Nc5ccn6nccc6c5)c34)C2)CC1` [Example 32, [4-(Dimethylamino)piperidin-1-yl][(7S)-4-(pyrazolo[1,5-a]pyridin-5-ylamino)-5,6,7,8-tetrahydro[1]benzothieno[2,3-d]pyrimidin-7-yl]methanone]: the negative-log IC50 (pIC50) at human full-length MKNK1 is 7.60; in data set [2], 7.00 to 8.00.
